These results are taken from PMC4361900 (Journal of medicinal chemistry, 2013).

In one data set the target is T1, MAO A (Homo sapiens, UniProt P21397).
T1 sequence (P21397 1-527): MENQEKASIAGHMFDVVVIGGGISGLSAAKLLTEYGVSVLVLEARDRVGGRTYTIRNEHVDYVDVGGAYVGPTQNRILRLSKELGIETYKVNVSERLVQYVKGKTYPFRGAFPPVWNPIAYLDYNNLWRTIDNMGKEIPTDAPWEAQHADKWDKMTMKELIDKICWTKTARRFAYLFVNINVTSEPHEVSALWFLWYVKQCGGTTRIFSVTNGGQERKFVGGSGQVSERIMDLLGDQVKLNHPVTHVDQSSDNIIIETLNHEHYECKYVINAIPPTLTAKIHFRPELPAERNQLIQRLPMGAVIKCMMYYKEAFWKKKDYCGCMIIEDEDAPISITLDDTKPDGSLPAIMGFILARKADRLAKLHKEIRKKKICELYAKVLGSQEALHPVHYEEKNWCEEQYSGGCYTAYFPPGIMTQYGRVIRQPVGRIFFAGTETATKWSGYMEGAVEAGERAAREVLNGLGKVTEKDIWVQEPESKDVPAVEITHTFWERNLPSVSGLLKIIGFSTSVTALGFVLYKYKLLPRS
The data set is described as follows: MAO A inhibition, kynuramine fluorescence assay. It counts as biochemical.

The target of a further data set is T2, MAO B (Homo sapiens, UniProt P27338).
T2 sequence (P27338 1-520): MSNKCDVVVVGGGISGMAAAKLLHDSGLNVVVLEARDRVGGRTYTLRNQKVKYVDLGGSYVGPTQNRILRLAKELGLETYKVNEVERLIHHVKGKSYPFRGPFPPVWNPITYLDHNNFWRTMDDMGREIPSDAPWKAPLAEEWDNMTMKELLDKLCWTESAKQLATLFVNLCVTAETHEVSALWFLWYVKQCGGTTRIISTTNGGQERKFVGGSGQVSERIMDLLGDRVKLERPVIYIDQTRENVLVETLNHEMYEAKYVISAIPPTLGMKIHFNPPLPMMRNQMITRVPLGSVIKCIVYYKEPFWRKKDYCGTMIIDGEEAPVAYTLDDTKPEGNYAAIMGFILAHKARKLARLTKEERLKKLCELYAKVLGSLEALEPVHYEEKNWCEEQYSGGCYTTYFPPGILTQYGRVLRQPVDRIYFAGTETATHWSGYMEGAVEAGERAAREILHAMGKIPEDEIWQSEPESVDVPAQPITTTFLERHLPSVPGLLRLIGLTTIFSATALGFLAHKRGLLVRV
The data set is described as follows: MAO B inhibition, kynuramine fluorescence assay. It counts as biochemical. The following applies: for Inhibition of MAO B, % inhibition @ conc.: @ 500 µM.

The next data set deals with H3K4me2 in MCF7 cells. The data set is described as follows: Western blot of H3K4 dimethylation in MCF7 cells. It counts as cell-based. The following applies: 24 hours incubation. (In western blotting, separated proteins are transferred to a membrane and probed.)
Data set [1] is described as follows: Solubility in cell culture media. It counts as physicochemical.
The target of data set [2] is T3, LSD1 (Homo sapiens, UniProt O60341). The data set is described as follows: LSD1 in-vitro inhibition, horseradish peroxidase. It counts as biochemical. The following applies: for Inhibition of LSD1, % inhibition @ conc.: @ 100 µM.
Data set [3] concerns the target T3, LSD1. The following applies: MAO inhibitors; cited from earlier work.

Regarding `C#CCNCCCC[C@H](NC(=O)c1ccccc1)C(=O)OC(C)(C)C` [1a], on MAO A (@ 100 µM), the “Inhibition of MAO A, % inhibition @ conc.” value is given as “n.i. @ 100 µM”. Moreover, at MAO B, the “Inhibition of MAO B, % inhibition @ conc.” value was “n.i. ^a @ 500 µM”.
In the case of `C#CCN(C)CCCC[C@H](NC(=O)OCc1ccccc1)C(=O)OCc1ccccc1` [2b], the “Inhibition of MAO B, % inhibition @ conc.” value on MAO B is on record as “n.i. @ 500 µM”.
With `C#CCN(C)CCCOc1cccc(NC(=O)c2ccccc2)c1` [4b], in the data set on H3K4me2 in MCF7 cells, the “H3K4 dimethylation level (western blot)” value is “increased levels of H3K4 dimethylation”. Besides, the “Solubility in cell culture media” value in data set [1] is listed as “soluble”.
For `C#CCNCC(O)COc1ccc(-c2ccccc2)cc1` (stereo not drawn) [5a, 3-(Prop-2-ynylamino)-2-hydroxy-1-(biphenyl-4-yloxy)propane], in the data set with H3K4me2 in MCF7 cells, the “H3K4 dimethylation level (western blot)” value is on record as “increased levels of H3K4 dimethylation”. Besides, the “Solubility in cell culture media” value in data set [1] is recorded as “soluble”.
As to `C#CCN(C)CC(O)COc1ccc(-c2ccccc2)cc1` (stereo not drawn) [5b], the “Inhibition of MAO A, % inhibition @ conc.” value at MAO A (@ 10 µM) was “n.i. @ 10 µM”.
`C#CCN(C)CC(O)COc1ccc2ccccc2c1` (stereo not drawn) [5d]: the “MAO-B inhibition in words” value on MAO B is on record as “only limited inhibition”.
`C#CCNCC(O)COc1ccc(-c2ccc(Br)cc2)cc1` (stereo not drawn) [5i]: the “Inhibition of LSD1, % inhibition @ conc.” value on LSD1 [2] is on record as “n.i. @ 100 µM”.
As to `C#CCNCC(O)COc1ccc(-c2ccc(Cl)cc2Cl)cc1` (stereo not drawn) [5j], the “Inhibition of LSD1, % inhibition @ conc.” value on LSD1 [2] is given as “n.i. @ 100 µM”.
For the molecule `C#CCNCC(O)COc1ccc(-c2cc(Cl)cc(Cl)c2)cc1` (stereo not drawn) [5k], the “Inhibition of LSD1, % inhibition @ conc.” value at LSD1 [2] is given as “n.i. @ 100 µM”.
On the same count and under the same terms, then `C#CCN(C)CC(O)COc1ccc(C(=O)OC)cc1` (stereo not drawn) [5l], with “n.i. @ 100 µM”.
As to `C#CCNCC(O)COc1ccc(C(=O)OC)cc1` (stereo not drawn) [5m], at LSD1 [2], the “Inhibition of LSD1, % inhibition @ conc.” value is “n.i. @ 100 µM”.
For `C#CCN(C)CC(O)COc1ccc(CC(=O)OC)cc1` (stereo not drawn) [5n], the “Inhibition of LSD1, % inhibition @ conc.” value at LSD1 [2] was “n.i. @ 100 µM”.
As for `C#CCNCC(O)COc1ccc(CC(=O)OC)cc1` (stereo not drawn) [5o], the “Inhibition of LSD1, % inhibition @ conc.” value at LSD1 [2] is “n.i. @ 100 µM”.
With `C#CCN(C)CC(O)COc1ccc(CCC(=O)OC)cc1` (stereo not drawn) [5p], at LSD1 [2], the “Inhibition of LSD1, % inhibition @ conc.” value is “n.i. @ 100 µM”.
Still for that read-out and setting: then `C#CCNCC(O)COc1ccc(C(N)=O)cc1` (stereo not drawn) [5q], with “n.i. @ 100 µM”; and `C#CCN(C)CC(O)COc1ccc(C(N)=O)cc1` (stereo not drawn) [5r], with “n.i. @ 100 µM”.
In the case of `C#CCNCC(O)CNc1ccc(-c2ccccc2)cc1` (stereo not drawn) [6a], on LSD1 [2], the “LSD1 inhibition in words” value was “inactive” and the “Inhibition of LSD1, % inhibition @ conc.” value is recorded as “n.i. @ 100 µM”.
The matching figures for `C#CCNCC(O)CN(C)c1ccc(-c2ccccc2)cc1` (stereo not drawn) [6b, 1-(N-Methyl-4-phenylanilino)-3-(prop-2-ynylamino)propan-2-ol]: “inactive” and “n.i. @ 100 µM”.
Take `OC(CNC1CC1)COc1ccc(-c2ccccc2)cc1` (stereo not drawn) [7a]: the “Inhibition of LSD1, % inhibition @ conc.” value on LSD1 [2] is “n.i. @ 100 µM”.
The same measure, in the same setting: then `OC(CNC1CC1)COc1ccc2ccccc2c1` (stereo not drawn) [7b], with “n.i. @ 100 µM”.
Regarding `C#CCN(C)[C@H](C)Cc1ccccc1` [deprenyl], the “Inhibitory activity on LSD1” value at LSD1 [3] is “millimolar range”.
Consider `C#CCN(C)Cc1ccccc1` [pargyline], for which, on LSD1 [3], the “Inhibitory activity on LSD1” value is recorded as “millimolar range”.
